The GI50 is the concentration giving 50% growth inhibition. As usually defined, the melting point is the temperature of the solid-liquid transition.

Results on eight molecules are retold here after US11098052B2, “4-azapodophylotoxins compounds” (Arizona Board of Regents on behalf of Arizona State …, priority 2016, dated 2021).

In brackets after ≈: the same amount, converted by molar mass. Read-outs that look alike come from different tables or passages of the source. Some results are limits rather than exact numbers.

Data set [1] concerns P388 murine lymphocytic leukemia cell line. Briefly: Murine P388 lymphocytic leukemia inhibitory activity. The class given is cell-based. The note with it: Mus musculus.
The test system of another data set is BXPC-3 (pancreas). Briefly: Human cancer cell growth inhibition, sulforhodamine B assay, BXPC-3. The class given is cell-based. As to conditions: read-out: Growth Inhibition of Human Cancer Cell Lines (GI50), BXPC-3. As for the experimental part:
(§1) Cancer Cell Line Procedures. The human cancer cell growth inhibition data were determined using the standard sulforhodamine B assay of the US National Cancer Institute as previously described.^35 In short, cells in a 5% fetal bovine serum/RPMI1640 medium were inoculated in 96-well plates and incubated for 24 h. Next, serial dilutions of the samples were added. After 48 h, the plates were fixed with trichloroacetic acid, stained with sulforhodamine B, and read with an automated microplate reader. A growth inhibition of 50% (GI50 or the drug concentration causing a 50% reduction in the net protein increase) was determined from optical density data employing Immunosoft® software.
Background: In SRB staining, fixed cells bind dye roughly in proportion to their protein.

The test system of another data set is MCF-7 (breast). Nature of the data set: Human cancer cell growth inhibition, sulforhodamine B assay, MCF-7. The class given is cell-based. As to conditions: read-out: Growth Inhibition of Human Cancer Cell Lines (GI50), MCF-7. How it is done:
as §1

In another data set the test system is SF-268 (CNS). Briefly: Human cancer cell growth inhibition, sulforhodamine B assay, SF-268. As to conditions: read-out: Growth Inhibition of Human Cancer Cell Lines (GI50), SF-268. The format is cell-based. As for the experimental part:
as §1

The next data set concerns NCI-H460 (lung). Nature of the data set: Human cancer cell growth inhibition, sulforhodamine B assay, NCI-H460. The format is cell-based. As to conditions: read-out: Growth Inhibition of Human Cancer Cell Lines (GI50), NCI-H460. As for the experimental part: as §1
Another data set has as its system DU-145 (prostate). Briefly: Human cancer cell growth inhibition, sulforhodamine B assay, DU-145. The format is cell-based. The note with it: read-out: Growth Inhibition of Human Cancer Cell Lines (GI50), DU-145. As for the experimental part:
as §1

The next data set relates to KM20L2 (colon). Nature of the data set: Human cancer cell growth inhibition, sulforhodamine B assay, KM20L2. The class given is cell-based. The note with it: read-out: Growth Inhibition of Human Cancer Cell Lines (GI50), KM20L2. How it is done:
as §1

Setting [2] is: P388, read-out: Murine P388 Lymphocytic Leukemia Inhibitory Activity (ED50).

`COc1cc(C2C3=C(COC3=O)N(Cc3ccco3)c3cc4c(cc32)OCO4)cc(OC)c1O` (centres unmarked) [Compound 32, 6,7-Methylenedioxy-4-(furan-2-ylmethyl)-9-(4-hydroxy-3,5-dimethoxy-phenyl)-4,9-dihydro-3H-furo[3,4-b]quinolin-1-one]: in data set [1] (setting [2]), the IC50 stood at 0.89 µg/mL (≈ 1.92 µM). Further, the GI50 came out at 1 µg/mL (≈ 2.16 µM) in the data set with BXPC-3 (pancreas) (BXPC-3, 48 h); 0.054 µg/mL (≈ 0.117 µM) in the data set with MCF-7 (breast) (MCF7, 48 h); 0.061 µg/mL (≈ 0.132 µM) in the data set with SF-268 (CNS) (SF-268, 48 h); 0.24 µg/mL (≈ 0.518 µM) with NCI-H460 (lung) (NCI-H460, 48 h); 0.39 µg/mL (≈ 0.842 µM) in the data set on DU-145 (prostate) (DU-145, 48 h).
`COc1cc(C2C3=C(COC3=O)N(C3CCC3)c3cc4c(cc32)OCO4)cc(OC)c1OC` (centres unmarked) [Compound 17, 6,7-Methylenedioxy-4-(cyclobutyl)-9-(3,4,5-trimethoxyphenyl)-4,9-dihydro-3H-furo[3,4-b]quinolin-1-one] registered a melting point of 224 to 226 °C. Moreover, in data set [1] (setting [2]), the IC50 is 0.24 µg/mL (≈ 0.532 µM). In addition, the GI50 in the data set on BXPC-3 (pancreas) (BXPC-3, 48 h) came out at 0.04 µg/mL (≈ 0.0886 µM). For the same molecule, the GI50 in the data set with MCF-7 (breast) (MCF7, 48 h) was determined as 0.026 µg/mL (≈ 0.0576 µM). In the data set on SF-268 (CNS) (SF-268, 48 h), the GI50 was 0.026 µg/mL (≈ 0.0576 µM). For the same molecule, the GI50 in the data set on NCI-H460 (lung) (NCI-H460, 48 h) was 0.028 µg/mL (≈ 0.062 µM). Moreover, the GI50 in the data set on KM20L2 (colon) (KM-20L2, 48 h) was 0.032 µg/mL (≈ 0.0709 µM). In addition, the GI50 in the data set with DU-145 (prostate) (DU-145, 48 h) worked out at 0.047 µg/mL (≈ 0.104 µM).
`COc1cc(C2C3=C(COC3=O)N(CCc3ccc(Cl)cc3)c3cc4c(cc32)OCO4)cc(OC)c1OC` (centres unmarked) [Compound 26, 6,7-Methylenedioxy-4-[2-(4-chlorophenyl)-ethyl]-9-(3,4,5-trimethoxyphenyl)-4,9-dihydro-3H-furo[3,4-b]quinolin-1-one] registered a melting point of 170 to 173 °C. The IC50 in data set [1] (setting [2]) amounted to 2.6 µg/mL (≈ 4.85 µM). The GI50 in the data set with BXPC-3 (pancreas) (BXPC-3, 48 h) amounted to 0.54 µg/mL (≈ 1.01 µM). In the data set on MCF-7 (breast) (MCF7, 48 h), the GI50 was 0.34 µg/mL (≈ 0.634 µM). For the same molecule, the GI50 in the data set with SF-268 (CNS) (SF-268, 48 h) is 0.35 µg/mL (≈ 0.653 µM). Besides, the GI50 in the data set on NCI-H460 (lung) (NCI-H460, 48 h) turned out to be 0.3 µg/mL (≈ 0.56 µM). The GI50 in the data set with KM20L2 (colon) (KM-20L2, 48 h) was 0.37 µg/mL (≈ 0.69 µM). The GI50 in the data set with DU-145 (prostate) (DU-145, 48 h) came out at 0.31 µg/mL (≈ 0.578 µM).
As to `COc1cc(C2C3=C(COC3=O)N(CCN3CCOCC3)c3cc4c(cc32)OCO4)cc(OC)c1OC` (centres unmarked) [Compound 22, 6,7-Methylenedioxy-4-(2-morpholin-4-yl-ethyl)-9-(3,4,5-trimethoxyphenyl)-4,9-dihydro-3H-furo[3,4-b]quinolin-1-one], the melting point lay in the range of 186 to 189 °C. Also, in data set [1] (setting [2]), the IC50 turned out to be 2.6 µg/mL (≈ 5.09 µM). Moreover, the GI50 with BXPC-3 (pancreas) (BXPC-3, 48 h) was determined as 3.5 µg/mL (≈ 6.86 µM). In addition, in the data set with MCF-7 (breast) (MCF7, 48 h), the GI50 stood at 0.89 µg/mL (≈ 1.74 µM). Further, the GI50 with SF-268 (CNS) (SF-268, 48 h) was found to be 2.6 µg/mL (≈ 5.09 µM). Further, the GI50 in the data set on NCI-H460 (lung) (NCI-H460, 48 h) amounted to 3 µg/mL (≈ 5.88 µM). The GI50 in the data set on KM20L2 (colon) (KM-20L2, 48 h) amounted to 2.5 µg/mL (≈ 4.9 µM). Further, in the data set on DU-145 (prostate) (DU-145, 48 h), the GI50 was determined as 2 µg/mL (≈ 3.92 µM).
Regarding `COc1cc(C2C3=C(COC3=O)N(CCN3CCCCC3)c3cc4c(cc32)OCO4)cc(OC)c1OC` (centres unmarked) [Compound 21, 6,7-Methylenedioxy-4-(2-piperidin-1-yl-ethyl)-9-(3,4,5-trimethoxyphenyl)-4,9-dihydro-3H-furo[3,4-b]quinolin-1-one], the melting point is 170 °C (dec.). The IC50 in data set [1] (P388 cell line, read-out: Murine P388 Lymphocytic Leukemia Inhibitory Activity (ED50)) stood at 1.7 µg/mL (≈ 3.34 µM). Besides, in the data set on BXPC-3 (pancreas) (BXPC-3 pancreas, 48 h, sulforhodamine B), the GI50 stood at 4.4 µg/mL (≈ 8.65 µM). Further, the GI50 with MCF-7 (breast) (MCF7, MCF-7 breast, 48 h, sulforhodamine B) was above 10 µg/mL. Further, the GI50 in the data set with SF-268 (CNS) (SF-268 CNS, 48 h, sulforhodamine B) is above 10 µg/mL. Besides, the GI50 with NCI-H460 (lung) (NCI-H460 lung, 48 h, sulforhodamine B) is above 10 µg/mL. The GI50 with KM20L2 (colon) (KM-20L2, KM20L2 colon, 48 h, sulforhodamine B) was above 10 µg/mL. Besides, the GI50 in the data set with DU-145 (prostate) (DU-145 prostate, 48 h, sulforhodamine B) is above 10 µg/mL.
`COc1cc(C2C3=C(COC3=O)N(Cc3ccc(F)cc3)c3cc4c(cc32)OCO4)cc(OC)c1OC` (centres unmarked) [Compound 23, 6,7-Methylenedioxy-4-(4-fluoro-benzyl)-9-(3,4,5-trimethoxyphenyl)-4,9-dihydro-3H-furo[3,4-b]quinolin-1-one] displayed a melting point of 246 to 247 °C. For the same molecule, the IC50 in data set [1] (setting [2]) was 1.9 µg/mL (≈ 3.76 µM). Also, the GI50 in the data set on BXPC-3 (pancreas) (BXPC-3, 48 h) is 0.046 µg/mL (≈ 0.091 µM). Also, in the data set on MCF-7 (breast) (MCF7, 48 h), the GI50 was 0.037 µg/mL (≈ 0.0732 µM). Besides, in the data set on SF-268 (CNS) (SF-268, 48 h), the GI50 stood at 0.03 µg/mL (≈ 0.0593 µM). For the same molecule, the GI50 in the data set with NCI-H460 (lung) (NCI-H460, 48 h) amounted to 0.031 µg/mL (≈ 0.0613 µM). Also, the GI50 in the data set on KM20L2 (colon) (KM-20L2, 48 h) was determined as 0.033 µg/mL (≈ 0.0653 µM). The GI50 in the data set on DU-145 (prostate) (DU-145, 48 h) stood at 0.047 µg/mL (≈ 0.093 µM).
Consider `COc1cc(C2C3=C(COC3=O)N(C3CCCC3)c3cc4c(cc32)OCO4)cc(OC)c1O` (centres unmarked) [Compound 30, 6,7-Methylenedioxy-4-(cyclopentyl)-9-(4-hydroxy-3,5-dimethoxy-phenyl)-4,9-dihydro-3H-furo[3,4-b]quinolin-1-one], for which the IC50 in data set [1] (setting [2]) turned out to be 30.3 µg/mL (≈ 67.1 µM). Also, the GI50 in the data set with BXPC-3 (pancreas) (BXPC-3, 48 h) turned out to be 0.53 µg/mL (≈ 1.17 µM); in the data set on MCF-7 (breast) (MCF7, 48 h) it was 0.32 µg/mL (≈ 0.709 µM); in the data set on SF-268 (CNS) (SF-268, 48 h), 0.39 µg/mL (≈ 0.864 µM); with NCI-H460 (lung) (NCI-H460, 48 h) it was 0.33 µg/mL (≈ 0.731 µM); with KM20L2 (colon) (KM-20L2, 48 h), 2.1 µg/mL (≈ 4.65 µM); in the data set on DU-145 (prostate) (DU-145, 48 h), 0.41 µg/mL (≈ 0.908 µM).
`COc1cc(C2C3=C(COC3=O)N(CCc3ccc(F)cc3)c3cc4c(cc32)OCO4)cc(OC)c1O` (centres unmarked) [Compound 31, 6,7-Methylenedioxy-4-[2-(4-fluorophenyl)-ethyl]-9-(4-hydroxy-3,5-dimethoxy-phenyl)-4,9-dihydro-3H-furo[3,4-b]quinolin-1-one]: the IC50 in data set [1] (setting [2]) was determined as 0.21 µg/mL (≈ 0.415 µM). For the same molecule, the GI50 is 1.4 µg/mL (≈ 2.77 µM) with BXPC-3 (pancreas) (BXPC-3, 48 h); 0.34 µg/mL (≈ 0.673 µM) in the data set on MCF-7 (breast) (MCF7, 48 h); 0.48 µg/mL (≈ 0.95 µM) in the data set on SF-268 (CNS) (SF-268, 48 h); 0.36 µg/mL (≈ 0.712 µM) in the data set on NCI-H460 (lung) (NCI-H460, 48 h); 0.38 µg/mL (≈ 0.752 µM) with DU-145 (prostate) (DU-145, 48 h).
